Results as given in publication PMC10614203, “Synthesis, Structure–Activity Relationships, Radiofluorination, and Biological Evaluation of [^18F]RM365, a Novel Radioligand for Imaging the Human Cannabinoid Receptor Type 2 (CB2R) in the Brain with PET” (Journal of Medicinal Chemistry, 2023).

Target: T1, rat CB2R (Rattus norvegicus, UniProt Q9QZN9)
T1 construct: one spleen from a female SPRD rat expressing high levels of the receptor in the leukocytes; from tissue; host or cells: rat spleen (female SPRD rat; autoradiography also described with male F433 rats)
T1 sequence (Q9QZN9 1-360): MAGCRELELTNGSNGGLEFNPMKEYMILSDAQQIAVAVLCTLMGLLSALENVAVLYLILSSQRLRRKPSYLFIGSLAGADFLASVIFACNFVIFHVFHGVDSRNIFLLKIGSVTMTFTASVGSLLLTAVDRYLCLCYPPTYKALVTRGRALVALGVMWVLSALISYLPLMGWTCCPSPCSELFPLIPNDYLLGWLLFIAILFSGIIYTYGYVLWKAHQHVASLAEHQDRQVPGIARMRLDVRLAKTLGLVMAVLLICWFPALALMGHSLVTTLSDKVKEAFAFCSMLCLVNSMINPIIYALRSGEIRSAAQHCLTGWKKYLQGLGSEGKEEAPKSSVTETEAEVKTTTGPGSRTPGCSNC
Test: In vitro autoradiography on rat spleen cryosections
Type: binding
Details: Figure S2
Description: To complement the indirect determination of the affinity of RM365 toward the CB2R in vitro, we performed a direct binding study with the radiofluorinated ligand using preparations of CHO cells stably transfected with the cloned human receptor and one spleen from a female SPRD rat expressing high levels of the receptor in the leukocytes.[12] The results of the homologous competition study shown in Figure 6 confirm the good affinity of [^18F]RM365 toward the human CB2R with a KD value of about 2 nM. […] Furthermore, the measurement signal obtained from the incubation of [^18F]RM365 with the homogenate of rat spleen was in the range of the values obtained for the nonspecific binding of the radioligand toward the preparation of CB2R-transfected CHO cells. We conclude that RM365 binds the rat CB2R with lower affinity than the human CB2R but expect no significant interactions of the radioligand with nonspecific binding sites.[82] Because of the available rat model to assess the potential of [^18F]RM365 to cross the blood–brain barrier and to specifically label human CB2R—the hCB2R(D80N) model with high expression of human CB2R in the brain[31],[32],[66],[83]—we intended to confirm the initial findings from the rat homogenate by an autoradiographic study.
The in vitro autoradiographic experiments were performed according to a previously published protocol.[88] […]

specific interaction with rat CB2R in spleen cryosections, in words: absence of a specific interaction
SMILES: CC1(C)Cc2ccc(C#N)cc2[C@@H]1NC(=O)c1cc2cc([18F])ccc2[nH]1 [[^18F]RM365]
